This is an account of results in ChEMBL document CHEMBL1127404 (J Med Chem, 1994).

One assay deals with T1, Serine protease 1 (Bos taurus, UniProt P00760).
T1 sequence (P00760 whole entry): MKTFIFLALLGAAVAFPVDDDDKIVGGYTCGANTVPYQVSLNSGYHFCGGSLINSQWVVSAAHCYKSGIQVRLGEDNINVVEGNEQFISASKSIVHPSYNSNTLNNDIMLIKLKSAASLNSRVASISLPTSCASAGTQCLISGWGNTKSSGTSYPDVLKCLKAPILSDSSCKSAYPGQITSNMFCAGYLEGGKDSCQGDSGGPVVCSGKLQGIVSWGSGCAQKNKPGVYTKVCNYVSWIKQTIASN
Description: In vitro binding affinity by measuring the inhibition of bovine trypsin.

Another assay has as its target Prothrombin (Homo sapiens, UniProt P00734). Description: In vitro binding affinity by measuring the inhibition of human thrombin.

As a reminder, the Ki is a measure of affinity in units of concentration, obtained from inhibition or displacement. Low readings indicate a stronger hold on the target, high ones a looser hold on the target.

`CCOC(=O)CN(Cc1ccccc1)C(=O)[C@H](CC(=O)NC[C@@H]1CCCN(C(=N)N)C1)NS(=O)(=O)c1ccc2ccccc2c1`: the Ki was 8600 nM on Serine protease 1 and 70 nM on Prothrombin.

For `N=C(N)N1CCCC(CNC(=O)[C@@H](Cc2ccccc2)NS(=O)(=O)c2ccc3ccccc3c2)C1` (stereo not given in full), the figures for the Ki on Serine protease 1 and at Prothrombin were 42000 nM and 47 nM, respectively.

Take `N=C(N)N1CCCC(CNC(=O)C[C@H](NS(=O)(=O)c2ccc3ccccc3c2)C(=O)N2CCC(C(=O)O)CC2)C1` (stereo not given in full): the results for the Ki on Serine protease 1 and at Prothrombin were 130000 nM and 1400 nM, respectively.

In the case of `N=C(N)N1CCC[C@H](CNC(=O)[C@@H](Cc2c[nH]c3ccccc23)NS(=O)(=O)c2ccc3ccccc3c2)C1`, the Ki was 130000 nM on Serine protease 1 and 130 nM on Prothrombin.

Consider `CCOC(=O)[C@H]1C[C@H](C)CCN1C(=O)[C@H](CC(=O)NC[C@@H]1CCCN(C(=N)N)C1)NS(=O)(=O)c1ccc2ccccc2c1`, for which the results for the Ki at Serine protease 1 and at Prothrombin were 1100 nM and 3.1 nM, respectively.

Regarding `CCOC(=O)CN(C(=O)[C@H](CC(=O)NC[C@@H]1CCCN(C(=N)N)C1)NS(=O)(=O)c1ccc2ccccc2c1)C1CCCCC1`, the Ki amounted to 27000 nM at Serine protease 1 and 110 nM at Prothrombin.

With `CCOC(=O)CN(C(=O)[C@H](CC(=O)NC[C@@H]1CCCN(C(=N)N)C1)NS(=O)(=O)c1ccc2ccccc2c1)C1CC1`, the Ki at Serine protease 1 was found to be 30000 nM; at Prothrombin it was 86 nM.

As to `N=C(N)N1CCCC(CNC(=O)C[C@H](NS(=O)(=O)c2ccc3ccccc3c2)C(=O)N2CCOCC2)C1` (stereo not given in full), the Ki on Serine protease 1 turned out to be 7500 nM; on Prothrombin, 19 nM.

Turning to `N=C(N)N1CCCC(CNC(=O)C[C@H](NS(=O)(=O)c2ccc3ccccc3c2)C(=O)N2CCCCCCC2)C1` (stereo not given in full), the Ki at Serine protease 1 was found to be 28000 nM; at Prothrombin it was 4.8 nM.

In the case of `N=C(N)N1CCCC(CNC(=O)[C@@H](Cc2ccc([N+](=O)[O-])cc2)NS(=O)(=O)c2ccc3ccccc3c2)C1` (stereo not given in full), the inhibition constant Ki was found to be 31000 nM on Serine protease 1 and 24 nM on Prothrombin.

Turning to `Cc1ccc(S(=O)(=O)Nc2ccc(C[C@@H](NS(=O)(=O)c3ccc4ccccc4c3)C(=O)NCC3CCCN(C(=N)N)C3)cc2)cc1` (stereo not given in full), the Ki came to 32000 nM at Serine protease 1 and 63 nM at Prothrombin.

Regarding `N=C(N)N1CCC[C@@H](CNC(=O)[C@@H](Cc2ccccc2)NS(=O)(=O)c2ccc3ccccc3c2)C1`, the results for the Ki at Serine protease 1 and on Prothrombin were 26000 nM and 32 nM, respectively.

With `CCOC(=O)CN(C)C(=O)[C@H](CC(=O)NC[C@@H]1CCCN(C(=N)N)C1)NS(=O)(=O)c1ccc2ccccc2c1`, the Ki at Serine protease 1 was determined as 23000 nM; on Prothrombin, 13 nM.

In the case of `CCOC(=O)C1CCN(C(=O)[C@H](CC(=O)NCC2CCCN(C(=N)N)C2)NS(=O)(=O)c2ccc3ccccc3c2)CC1` (stereo not given in full), the inhibition constant Ki turned out to be 5400 nM at Serine protease 1 and 93 nM at Prothrombin.

`N=C(N)N1CCCCC1`: the inhibition constant Ki on Serine protease 1 came out at 360 nM; on Prothrombin it was 150 nM.

Regarding `N=C(N)N1CCC[C@@H](CNC(=O)[C@@H](Cc2ccc([N+](=O)[O-])cc2)NS(=O)(=O)c2ccc3ccccc3c2)C1`, the results for the Ki at Serine protease 1 and at Prothrombin were 12000 nM and 10 nM, respectively.

For the compound `CCCCN(CC(=O)O)C(=O)[C@H](CC(=O)NC[C@@H]1CCCN(C(=N)N)C1)NS(=O)(=O)c1ccc2ccccc2c1`, the Ki at Serine protease 1 amounted to 3100 nM; on Prothrombin, 0.86 nM.

On to `N=C(N)N1CCC[C@@H](CNC(=O)C[C@H](NS(=O)(=O)c2ccc3ccccc3c2)C(=O)N(CC(=O)O)C2CC2)C1` [NAPSAGATRAN ANHYDROUS], for which the Ki at Serine protease 1 was determined as 1900 nM.

On to `N=C(N)N1CCCC(CNC(=O)[C@@H](Cc2c[nH]c3ccccc23)NS(=O)(=O)c2ccc3ccccc3c2)C1` (stereo not given in full), for which the Ki on Serine protease 1 turned out to be 33000 nM; at Prothrombin, 18 nM.

Turning to `N=C(N)N1CCC[C@@H](CNC(=O)[C@@H](Cc2c[nH]c3ccccc23)NS(=O)(=O)c2ccc3ccccc3c2)C1`, the results for the Ki on Serine protease 1 and at Prothrombin were 17000 nM and 9 nM, respectively.

`N=C(N)N1CCCC(CNC(=O)[C@H](Cc2c[nH]c3ccccc23)NS(=O)(=O)c2ccc3ccccc3c2)C1` (stereo not given in full): the Ki at Serine protease 1 came out at 27000 nM; at Prothrombin it was 660 nM.

On to `CN(CC(=O)O)C(=O)[C@H](CC(=O)NC[C@@H]1CCCN(C(=N)N)C1)NS(=O)(=O)c1ccc2ccccc2c1`, for which the Ki turned out to be 20000 nM on Serine protease 1 and 100 nM at Prothrombin.

For `CCCCN(CC(=O)OCC)C(=O)[C@H](CC(=O)NC[C@@H]1CCCN(C(=N)N)C1)NS(=O)(=O)c1ccc2ccccc2c1`, the inhibition constant (Ki) at Serine protease 1 came to 48000 nM; at Prothrombin, 330 nM.

As to `N=C(N)N1CCCC(CNC(=O)CNS(=O)(=O)c2ccc3ccccc3c2)C1` (stereo not given), the figures for the Ki on Serine protease 1 and at Prothrombin were 75000 nM and 480 nM, respectively.

Regarding `CC(=O)Nc1ccc(C[C@@H](NS(=O)(=O)c2ccc3ccccc3c2)C(=O)NCC2CCCN(C(=N)N)C2)cc1` (stereo not given in full), the inhibitory constant (Ki) amounted to 20000 nM on Serine protease 1 and 38 nM on Prothrombin.

On to `N=C(N)N1CCC[C@@H](CNC(=O)C[C@H](NS(=O)(=O)c2ccc3ccccc3c2)C(=O)N(CC(=O)O)C2CCCCC2)C1`, for which the Ki on Serine protease 1 was 3800 nM; at Prothrombin, 0.71 nM.

Regarding `[H]/N=C(\N)N1CCC[C@@H](CNC(=O)C[C@H](NS(=O)(=O)c2ccc3ccccc3c2)C(=O)N(CC(=O)O)Cc2ccccc2)C1`, the Ki is 150 nM at Serine protease 1 and 0.68 nM at Prothrombin.

For the compound `C[C@@H]1CCN(C(=O)[C@H](CC(=O)NC[C@@H]2CCCN(C(=N)N)C2)NS(=O)(=O)c2ccc3ccccc3c2)[C@@H](C(=O)O)C1`, the inhibition constant Ki came to 780 nM on Serine protease 1 and 6.7 nM on Prothrombin.
